Laboratory results taken from PubChem BioAssay AID1963978 (Molecular Pharmacology Branch, DTP, NCI, 2024).

Test system: 616215-338-R-J1-PDC spheroids with HUVEC/MSC, viability
Assay: Anticancer human tumor 616215-338-R-J1-PDC patient-derived colon adenocarcinoma cell line growth inhibition [PI3K]
Details: for IC50: curve of first compound; for viability, T/C: stronger effect = lower value
Method in brief: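 Three cell types, namely tumor cells, endothelial cells and mesenchymal stem cells, formed each spheroid. Combinations with four PI3K inhibitors were screened at clinically achievable concentrations decreasing by half-log, and spheroid viability was recorded.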

[1] = second compound 0.0316 µM, first compound 0.0316 µM
[2] = second compound 0.0316 µM, first compound 0.1 µM
[3] = second compound 0.0316 µM, first compound 0.316 µM
[4] = second compound 0.0316 µM, first compound 1 µM
[5] = second compound 0.0316 µM, first compound 3.16 µM
[6] = second compound 0.0316 µM, first compound 10 µM
[7] = second compound 0.1 µM, first compound 0.0316 µM
[8] = second compound 0.1 µM, first compound 0.1 µM
[9] = second compound 0.1 µM, first compound 0.316 µM
[10] = second compound 0.1 µM, first compound 1 µM
[11] = second compound 0.1 µM, first compound 3.16 µM
[12] = second compound 0.1 µM, first compound 10 µM
[13] = second compound 0.316 µM, first compound 0.0316 µM
[14] = second compound 0.316 µM, first compound 0.1 µM
[15] = second compound 0.316 µM, first compound 0.316 µM
[16] = second compound 0.316 µM, first compound 1 µM
[17] = second compound 0.316 µM, first compound 3.16 µM
[18] = second compound 0.316 µM, first compound 10 µM
[19] = second compound 1 µM, first compound 0.0316 µM
[20] = second compound 1 µM, first compound 0.1 µM
[21] = second compound 1 µM, first compound 0.316 µM
[22] = second compound 1 µM, first compound 1 µM
[23] = second compound 1 µM, first compound 3.16 µM
[24] = second compound 1 µM, first compound 10 µM
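Note: spheroids exposed to agents for seven days before the viability read.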

CC1(C)CCC(Nc2ncc(C(F)(F)F)c(-c3c[nH]c4c(P(C)(C)=O)c(C#N)ccc34)n2)CN1 (stereo unspecified) + CC(Nc1ccc2c(c1)OCCn1cc(N3C(=O)OCC3C(F)F)nc1-2)C(N)=O
IC50 (second compound 0.00316 µM): 3620 nM | IC50 (second compound 0.01 µM): 3730 nM | IC50 (second compound 0.0316 µM): 3540 nM | IC50 (second compound 0.1 µM): 3840 nM | IC50 (second compound 0.316 µM): 1630 nM | IC50 (second compound 1 µM): 1390 nM | viability, T/C (second compound 0.00316 µM, first compound 0.0316 µM): 50.4% | viability, T/C (second compound 0.00316 µM, first compound 0.1 µM): 55.4% | viability, T/C (second compound 0.00316 µM, first compound 0.316 µM): 56.4% | viability, T/C (second compound 0.00316 µM, first compound 1 µM): 61.7% | viability, T/C (second compound 0.00316 µM, first compound 3.16 µM): 59.1% | viability, T/C (second compound 0.00316 µM, first compound 10 µM): 0.47% | viability, T/C (second compound 0.01 µM, first compound 0.0316 µM): 53.6% | viability, T/C (second compound 0.01 µM, first compound 0.1 µM): 54.3% | viability, T/C (second compound 0.01 µM, first compound 0.316 µM): 58% | viability, T/C (second compound 0.01 µM, first compound 1 µM): 64.8% | viability, T/C (second compound 0.01 µM, first compound 3.16 µM): 61% | viability, T/C (second compound 0.01 µM, first compound 10 µM): 0.42% | viability, T/C [1]: 58% | viability, T/C [2]: 49.4% | viability, T/C [3]: 71.4% | viability, T/C [4]: 52.2% | viability, T/C [5]: 55.4% | viability, T/C [6]: 2.25% | viability, T/C [7]: 66.7% | viability, T/C [8]: 59.5% | viability, T/C [9]: 53.2% | viability, T/C [10]: 59.4% | viability, T/C [11]: 60.4% | viability, T/C [12]: 2.28% | viability, T/C [13]: 49.8% | viability, T/C [14]: 45.8% | viability, T/C [15]: 59.5% | viability, T/C [16]: 71.9% | viability, T/C [17]: 41% | viability, T/C [18]: 0.25% | viability, T/C [19]: 49.6% | viability, T/C [20]: 54.3% | viability, T/C [21]: 64.7% | viability, T/C [22]: 62.2% | viability, T/C [23]: 30.8% | viability, T/C [24]: 1.17%

CNC(=O)c1ccc(N2C(=S)N(c3ccc(C#N)c(C(F)(F)F)c3)C(=O)C2(C)C)cc1F + CC(Nc1ncnc2nc[nH]c12)c1cc2cccc(Cl)c2c(=O)n1-c1ccccc1
IC50 (second compound 0.0316 µM): > 10000 nM | IC50 (second compound 0.1 µM): > 10000 nM | IC50 (second compound 0.316 µM): > 10000 nM | IC50 (second compound 1 µM): > 10000 nM | IC50 (second compound 3.16 µM): > 10000 nM | IC50 (second compound 10 µM): > 10000 nM | viability, T/C [1]: 98.5% | viability, T/C [2]: 107% | viability, T/C [3]: 109% | viability, T/C [4]: 106% | viability, T/C [5]: 104% | viability, T/C [6]: 101% | viability, T/C [7]: 91% | viability, T/C [8]: 98.9% | viability, T/C [9]: 96% | viability, T/C [10]: 97.9% | viability, T/C [11]: 108% | viability, T/C [12]: 114% | viability, T/C [13]: 97.2% | viability, T/C [14]: 97% | viability, T/C [15]: 105% | viability, T/C [16]: 97.1% | viability, T/C [17]: 110% | viability, T/C [18]: 112% | viability, T/C [19]: 113% | viability, T/C [20]: 109% | viability, T/C [21]: 111% | viability, T/C [22]: 105% | viability, T/C [23]: 111% | viability, T/C [24]: 114% | viability, T/C (second compound 3.16 µM, first compound 0.0316 µM): 95.6% | viability, T/C (second compound 3.16 µM, first compound 0.1 µM): 94.3% | viability, T/C (second compound 3.16 µM, first compound 0.316 µM): 111% | viability, T/C (second compound 3.16 µM, first compound 1 µM): 104% | viability, T/C (second compound 3.16 µM, first compound 3.16 µM): 103% | viability, T/C (second compound 3.16 µM, first compound 10 µM): 106% | viability, T/C (second compound 10 µM, first compound 0.0316 µM): 104% | viability, T/C (second compound 10 µM, first compound 0.1 µM): 117% | viability, T/C (second compound 10 µM, first compound 0.316 µM): 117% | viability, T/C (second compound 10 µM, first compound 1 µM): 116% | viability, T/C (second compound 10 µM, first compound 3.16 µM): 110% | viability, T/C (second compound 10 µM, first compound 10 µM): 116%

Cn1cnc2c(F)c(Nc3ccc(Br)cc3Cl)c(C(=O)NOCCO)cc21 + CC(Nc1ncnc2nc[nH]c12)c1cc2cccc(Cl)c2c(=O)n1-c1ccccc1
IC50 (second compound 0.0316 µM): 1520 nM | IC50 (second compound 0.1 µM): 1560 nM | IC50 (second compound 0.316 µM): 1910 nM | IC50 (second compound 1 µM): 1730 nM | IC50 (second compound 3.16 µM): 1270 nM | IC50 (second compound 10 µM): 507 nM | viability, T/C (second compound 0.0316 µM, first compound 0.00949 µM): 94.3% | viability, T/C (second compound 0.0316 µM, first compound 0.03 µM): 100% | viability, T/C (second compound 0.0316 µM, first compound 0.0949 µM): 89.7% | viability, T/C (second compound 0.0316 µM, first compound 0.3 µM): 75.8% | viability, T/C (second compound 0.0316 µM, first compound 0.949 µM): 59.9% | viability, T/C (second compound 0.0316 µM, first compound 3 µM): 37.5% | viability, T/C (second compound 0.1 µM, first compound 0.00949 µM): 108% | viability, T/C (second compound 0.1 µM, first compound 0.03 µM): 96.5% | viability, T/C (second compound 0.1 µM, first compound 0.0949 µM): 89% | viability, T/C (second compound 0.1 µM, first compound 0.3 µM): 77.6% | viability, T/C (second compound 0.1 µM, first compound 0.949 µM): 51.8% | viability, T/C (second compound 0.1 µM, first compound 3 µM): 43.8% | viability, T/C (second compound 0.316 µM, first compound 0.00949 µM): 95.2% | viability, T/C (second compound 0.316 µM, first compound 0.03 µM): 90.5% | viability, T/C (second compound 0.316 µM, first compound 0.0949 µM): 86.5% | viability, T/C (second compound 0.316 µM, first compound 0.3 µM): 70.2% | viability, T/C (second compound 0.316 µM, first compound 0.949 µM): 59.6% | viability, T/C (second compound 0.316 µM, first compound 3 µM): 44.4% | viability, T/C (second compound 1 µM, first compound 0.00949 µM): 98.6% | viability, T/C (second compound 1 µM, first compound 0.03 µM): 90.8% | viability, T/C (second compound 1 µM, first compound 0.0949 µM): 87.6% | viability, T/C (second compound 1 µM, first compound 0.3 µM): 84.6% | viability, T/C (second compound 1 µM, first compound 0.949 µM): 63% | viability, T/C (second compound 1 µM, first compound 3 µM): 36.9% | viability, T/C (second compound 3.16 µM, first compound 0.00949 µM): 102% | viability, T/C (second compound 3.16 µM, first compound 0.03 µM): 96.3% | viability, T/C (second compound 3.16 µM, first compound 0.0949 µM): 83.3% | viability, T/C (second compound 3.16 µM, first compound 0.3 µM): 76.5% | viability, T/C (second compound 3.16 µM, first compound 0.949 µM): 55% | viability, T/C (second compound 3.16 µM, first compound 3 µM): 32.5% | viability, T/C (second compound 10 µM, first compound 0.00949 µM): 117% | viability, T/C (second compound 10 µM, first compound 0.03 µM): 99.1% | viability, T/C (second compound 10 µM, first compound 0.0949 µM): 93.3% | viability, T/C (second compound 10 µM, first compound 0.3 µM): 52.5% | viability, T/C (second compound 10 µM, first compound 0.949 µM): 41% | viability, T/C (second compound 10 µM, first compound 3 µM): 6.44%
